According to ChEMBL document CHEMBL4330073, “Discovery and development of small molecule modulators targeting glutamine metabolism” (Eur J Med Chem, 2019):

What follows are molecules tested against T1, Glutaminase kidney isoform, mitochondrial (Homo sapiens, UniProt O94925) (assay: Inhibition of GAC (unknown origin)).
T1 sequence (O94925 whole entry): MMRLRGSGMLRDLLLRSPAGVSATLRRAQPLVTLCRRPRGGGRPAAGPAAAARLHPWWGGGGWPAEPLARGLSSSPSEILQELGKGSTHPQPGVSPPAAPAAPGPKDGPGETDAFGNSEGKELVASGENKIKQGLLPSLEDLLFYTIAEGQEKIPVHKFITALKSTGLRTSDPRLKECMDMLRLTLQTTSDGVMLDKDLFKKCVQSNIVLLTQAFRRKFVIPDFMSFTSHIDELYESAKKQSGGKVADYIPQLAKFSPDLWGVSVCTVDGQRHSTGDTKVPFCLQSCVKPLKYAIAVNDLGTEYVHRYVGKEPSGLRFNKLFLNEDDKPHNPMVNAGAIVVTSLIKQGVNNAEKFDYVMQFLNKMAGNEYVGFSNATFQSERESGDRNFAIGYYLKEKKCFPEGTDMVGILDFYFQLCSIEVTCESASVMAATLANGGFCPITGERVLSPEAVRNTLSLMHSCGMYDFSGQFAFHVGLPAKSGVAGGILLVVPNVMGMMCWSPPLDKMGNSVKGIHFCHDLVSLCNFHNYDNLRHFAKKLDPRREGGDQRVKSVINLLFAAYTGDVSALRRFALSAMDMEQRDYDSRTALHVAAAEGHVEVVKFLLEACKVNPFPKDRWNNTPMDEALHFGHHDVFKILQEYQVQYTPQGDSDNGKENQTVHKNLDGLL

Structure (SMILES)	IC50 [nM]
O=C(Cc1ccccc1)Nc1nnc([C@@H]2CCC[C@H](c3nnc(NC(=O)Cc4ccccc4)s3)C2)s1	1000 to 2000
O=C(Cc1ccccc1)Nc1nnc([C@H]2CC[C@H](c3nnc(NC(=O)Cc4ccccc4)s3)C2)s1 (racemic)	100 to 500
O=C(Cc1ccccc1)Nc1ccn(CCCCc2ccc(NC(=O)Cc3cccc(OC(F)(F)F)c3)nn2)c(=O)c1	< 100
O=C(Cc1ccccc1)Nc1nnc([C@H]2CCC[C@H](c3nnc(NC(=O)Cc4ccccc4)s3)C2)s1 (racemic)	< 100
O=C(Cc1ccccc1)Nc1nnc(CCCCc2cnc3[nH]c(Cc4ccccc4)nc3c2)s1	> 500
O=C(NCc1ccccc1)c1cn(CCCCc2cc3cc(Cc4ccccc4)[nH]c3nn2)nn1	< 100
O=C(Cc1ccccc1)Nc1ccn(CCCCn2ccc(NC(=O)Cc3ccccc3)nc2=O)c(=O)n1	> 500
O=C(Cc1ccccc1)Nc1nnc(CCCCn2ccc(NC(=O)Cc3ccccc3)c(F)c2=O)s1	< 100
O=C(Cc1ccccc1)Nc1ccn(CCCCc2cc3cc(Cc4ccccc4)[nH]c3nn2)c(=O)c1	< 100
O=C(Cc1ccccc1)Nc1ccn(CCCCc2nnc(NC(=O)Cc3ccccc3)s2)c(=O)c1	< 100
O=C(Cc1ccccc1)Nc1nnc(CCCCc2cc3cc(Cc4ccccc4)[nH]c3nn2)s1	< 100
O=C(Cc1ccccc1)Nc1nnc([C@@H]2CC[C@H](c3nnc(NC(=O)Cc4ccccc4)s3)C2)s1	1000 to 2000
O=C(Cc1ccccc1)Nc1ccn(CCCCc2nnc(NC(=O)Cc3ccccc3)s2)c(=O)n1	< 100
O=C(Cc1ccccc1)Nc1nnc(C[C@H]2C[C@@H]2Cc2nnc(NC(=O)Cc3ccccc3)s2)s1 (racemic)	100 to 500
O=C(Cc1ccccc1)Nc1ccn(CCCCn2cc(C(=O)NCc3cccc(OC(F)(F)F)c3)nn2)c(=O)c1	< 100
O=C(Cc1ccccc1)Nc1ccn(CCCCn2cc(C(=O)NCc3cccc(OC(F)(F)F)c3)nn2)c(=O)c1F	< 100

These molecules were tested against T1, Glutaminase kidney isoform, mitochondrial (assay: Inhibition of human GAC after 10 mins by glutamate oxidase coupled Amplex UltraRed dye based assay).

Structure (SMILES)	IC50 [nM]
O=C(NCc1ccccc1)c1cn(CCCCn2cc(C(=O)NCc3cccc(C(F)(F)F)n3)nn2)nn1	100 to 500
CNC(=O)c1cn(CCCCc2ccc(C(=O)NCc3ccccc3)nn2)nn1	< 100
O=C(Cc1ccccc1)Nc1nnc(CCCCn2cc(C(=O)NCc3ccccc3)nn2)s1	< 100
O=C(NCc1cccc(C(F)(F)F)c1)c1cn(CCCCn2cc(C(=O)NCc3cccc(C(F)(F)F)n3)nn2)nn1	< 100
O=C(NCC1CCCCC1)c1cn(CCCCn2cc(C(=O)NCC3CCCCC3)nn2)nn1	> 500

The molecules below were run against T2, Glutaminase kidney isoform, mitochondrial (Homo sapiens) (UniProt O94925) (assay: Inhibition of recombinant GAC (unknown origin) at 0.1 uM after 15 mins in presence of NADPH by glutamate oxidase coupled spectrophotometric analysis relative to control).
T2 sequence (whole entry): T1 sequence (O94925 whole entry)

Structure (SMILES)	inhibition [%]
Cc1nc(NC(=O)Cc2cccc(OC(F)(F)F)c2)ccc1CCCCc1nnc(NC(=O)Cc2ccccn2)s1	< 25
O=C(Cc1cccc(OC(F)(F)F)c1)Nc1ccc(CCCCc2nnc(NC(=O)Cc3ccccn3)s2)nc1	< 25
O=C(Cc1cccc(OC(F)(F)F)c1)Nc1ncc(CCCCc2nnc(NC(=O)Cc3ccccn3)s2)cn1	< 25
O=C(Cc1cccc(OC(F)(F)F)c1)Nc1cnc(CCCCc2nnc(NC(=O)Cc3ccccn3)s2)cn1	< 25

The molecules below were run against T1, Glutaminase kidney isoform, mitochondrial (assay: Inhibition of recombinant GAC (unknown origin) after 15 mins in presence of NADPH by glutamate oxidase coupled spectrophotometric analysis).

Structure (SMILES)	IC50 [nM]
O=C(Cc1cccc(OC(F)(F)F)c1)Nc1ccc(CCCCc2nnc(NC(=O)Cc3ccccn3)s2)cn1	50 to 100

Species: Bos taurus
Experiment: Inhibition of bovine GDH

Structure (SMILES)	ED50 [nM]
O=C(O[C@@H]1Cc2c(O)cc(O)cc2O[C@@H]1c1ccc(O)c(O)c1)c1cc(O)c(O)c(O)c1	300
O=C(O[C@@H]1Cc2c(O)cc(O)cc2O[C@@H]1c1cc(O)c(O)c(O)c1)c1cc(O)c(O)c(O)c1	300

The molecules below were run against T3, Cystine/glutamate transporter (Homo sapiens, UniProt Q9UPY5) (assay: Inhibition of xCT-mediated cystein/glutamate transporter (unknown origin) assessed as reduction in L-[14C]cyctein uptake).
T3 sequence (Q9UPY5 whole entry): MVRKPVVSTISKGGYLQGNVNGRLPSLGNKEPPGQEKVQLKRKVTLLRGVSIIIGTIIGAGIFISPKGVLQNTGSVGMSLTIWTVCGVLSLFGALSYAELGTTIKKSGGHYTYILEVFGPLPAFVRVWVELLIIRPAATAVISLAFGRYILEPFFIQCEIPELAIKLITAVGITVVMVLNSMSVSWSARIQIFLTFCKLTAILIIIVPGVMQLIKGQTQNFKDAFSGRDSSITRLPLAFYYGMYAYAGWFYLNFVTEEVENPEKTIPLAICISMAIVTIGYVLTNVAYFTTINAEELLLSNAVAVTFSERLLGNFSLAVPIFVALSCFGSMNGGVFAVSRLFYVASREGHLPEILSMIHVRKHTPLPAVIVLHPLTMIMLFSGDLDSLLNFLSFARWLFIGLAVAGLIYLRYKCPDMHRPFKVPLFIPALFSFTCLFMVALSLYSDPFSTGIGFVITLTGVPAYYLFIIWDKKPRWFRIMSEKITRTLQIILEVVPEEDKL

Structure (SMILES)	IC50 [nM]
O=C(O)c1cc(C#Cc2ccc(S(=O)(=O)Nc3ccccn3)cc2)ccc1O	70000
O=C(O)c1cc(/C=C/c2ccc(S(=O)(=O)Nc3ccccn3)cc2)ccc1O	30000
O=C(O)c1cc(/N=N/c2ccc(S(=O)(=O)Nc3ccccn3)cc2)ccc1O [SULFASALAZINE]	160 to 30000
